Experimental data: patent publication US20230146455A1, “TREATMENT OF INFLAMMATORY DISEASES WITH PEPTIDES AND PHARMACEUTICAL COMPOSITIONS” (Yuyu Pharma, Inc., priority 2020, published 2023)
Values joined by “and” are separate entries in the source; they are usually repeats but may differ in a detail not shown here. Equal values may be shown once. Where a SMILES comes first, the peptide text is derived from it. [ ]: non-standard residue; d: D form. Hyp = O=C(O)[C@@H]1C[C@@H](O)CN1

Tests used:
Assay type in all cases: cell-based, human
IL-8/CXCL8 = experiment: Example 8 main study Luminex, LPS hPBMCs: IL-8/CXCL8; details: for IL-8/CXCL8 Concentration: single replicates (1st, 2nd, 3rd)
Procedure: (§1) Human PBMCs were pretreated with YY-101, YDE-011, YDE-043 or reference compound; Xiidra® at various concentration (ranging from […] to 500 nM) for 2 h before stimulation. An equal volume of 0.5% DMSO was used as a vehicle control. Then, the cells were treated with LPS at 5 ug/ml, which was selected based on the pilot study. The supernatants from treated cells were harvested at 24 h and placed in a 96 well for Luminex cytokine & chemokine profiling using a Luminex 200 multiplex assay (Luminex; R&D system, USA).
(§2) The main study arm with triplicate wells per group in a 24-well plate: • 1. Blank • 2. PBMC: 0.5% DMSO • 3. PBMC+LPS (5 ug/ml) • 4. PBMC+YY-101 500 nM • 5. PBMC+YY-101 50 nM • 6. PBMC+YY-101 5 nM • 7. PBMC+YY-101 0.5 nM • 8. PBMC+LPS (5 ug/ml)+Xiidra® 500 nM • 9. PBMC+LPS (5 ug/ml)+Xiidra® 50 nM • 10. PBMC+LPS (5 ug/ml)+Xiidra® 5 nM • 11. PBMC+LPS (5 ug/ml)+Xiidra® 0.5 nM • 12. PBMC+LPS (5 ug/ml)+Xiidra® 0.05 nM • 13. PBMC+LPS (5 ug/ml)+Xiidra® 0.005 nM • 14. PBMC+LPS (5 ug/ml)+YY-101 500 nM • 15. PBMC+LPS (5 ug/ml)+YY-101 50 nM • 16. PBMC+LPS (5 ug/ml)+YY-101 5 nM • 17. PBMC+LPS (5 ug/ml)+YY-101 0.5 nM • 18. PBMC+LPS (5 ug/ml)+YY-101 0.05 nM • 19. PBMC+LPS (5 ug/ml)+YY-101 0.005 nM • 20. PBMC+LPS (5 ug/ml)+YDE-011 500 nM • 21. PBMC+LPS (5 ug/ml)+YDE-011 50 nM • 22. PBMC+LPS (5 ug/ml)+YDE-011 5 nM • 23. PBMC+LPS (5 ug/ml)+YDE-011 0.5 nM • 24. PBMC+LPS (5 ug/ml)+YDE-011 0.05 nM • 25. PBMC+LPS (5 ug/ml)+YDE-011 0.005 nM • 26. PBMC+LPS (5 ug/ml)+YDE-043 500 nM • 27. PBMC+LPS (5 ug/ml)+YDE-043 50 nM • 28. PBMC+LPS (5 ug/ml)+YDE-043 5 nM • 29. PBMC+LPS (5 ug/ml)+YDE-043 0.5 nM • 30. PBMC+LPS (5 ug/ml)+YDE-043 0.05 nM • 31. PBMC+LPS (5 ug/ml)+YDE-043 0.005 nM
(§3) Multiplex assay was used to measure 30 cytokines and chemokines. The 1:200 diluted cell supernatant and serial dilution of the standard were dispensed into a 96 well plate at 50 ul/well. Then, the pre-mixed cocktail of antibody-coated magnetic beads was dispensed at 50 ul/well and incubated at room temperature for 2 h in a horizontal orbital microplate shaker at 800±500 rpm. The beads were washed using a magnetic device to prevent loss. The biotin-antibody was dispensed in 50 ul of each well and incubated at room temperature for 1 h in a shaker at 800±500 rpm. After washing, streptavidin-PE was added at 50 ul/well and incubated at room temperature for 30 min in a shaker under the same conditions. Finally, after washing, wash buffer (100 ul/well) was added to the plate and incubated in a shaker for 2 min. The Luminex™ 200 setting were set according to the manufacturer's protocol. The data was calculated with a standard five-parameter logistic nonlinear regression analysis of the data (xPonent software 4.2, USA). Results were presented as concentration (ng/ml or pg/ml).

IL-10 = experiment: Example 8 main study Luminex, LPS hPBMCs: IL-10; details: for IL-10 Concentration: individual replicates; for IL-10 Concentration (pg/ml), Mean: mean of replicates
Procedure: as §1, §2, §3

MMP-3 = experiment: Example 8 main study Luminex, LPS hPBMCs: MMP-3; details: for MMP-3 Concentration: single replicates
Procedure: as §1, §2, §3

[1] = PBMC + LPS(5 ug/ml) + test article 0.005 nM
[2] = PBMC + LPS(5 ug/ml) + test article 0.05 nM
[3] = PBMC + LPS(5 ug/ml) + test article 0.5 nM
[4] = PBMC + LPS(5 ug/ml) + test article 5 nM
[5] = PBMC + LPS(5 ug/ml) + test article 50 nM
[6] = PBMC + LPS(5 ug/ml) + test article 500 nM
[7] = at as low as 5 μM, LPS 5 ug/mL 24 hrs
[8] = PBMC + LPS(5 ug/ml) + YDE043 0.005 nM
[9] = PBMC + LPS(5 ug/ml) + YDE043 0.05 nM
[10] = PBMC + LPS(5 ug/ml) + YDE043 0.5 nM
[11] = PBMC + LPS(5 ug/ml) + YDE043 5 nM
[12] = PBMC + LPS(5 ug/ml) + YDE043 50 nM
[13] = PBMC + LPS(5 ug/ml) + YDE043 500 nM

Question: Which results are given for `CC(C)C[C@H](NC(=O)[C@H](CCC(N)=O)NC(=O)CNC(=O)[C@@H]1C[C@@H](O)CN1)C(=O)NCC(=O)O` [YDE-043] (H-[Hyp]GQLG-OH; N-terminus and C-terminus assumed)?
Answer: IL-8/CXCL8 Concentration, Mean (IL-8/CXCL8; [1]): 59062.0 pg/mL; IL-8/CXCL8 Concentration (IL-8/CXCL8; [1]): 56206.5 pg/mL and 53607.2 pg/mL and 67372.3 pg/mL; IL-8/CXCL8 Concentration, Mean (IL-8/CXCL8; [2]): 51146.6 pg/mL; IL-8/CXCL8 Concentration (IL-8/CXCL8; [2]): 48485.5 pg/mL and 53107.5 pg/mL and 51846.7 pg/mL; IL-8/CXCL8 Concentration, Mean (IL-8/CXCL8; [3]): 52327.4 pg/mL; IL-8/CXCL8 Concentration (IL-8/CXCL8; [3]): 55144.2 pg/mL and 51593.2 pg/mL and 50244.9 pg/mL; IL-8/CXCL8 Concentration, Mean (IL-8/CXCL8; [4]): 56067.9 pg/mL; IL-8/CXCL8 Concentration (IL-8/CXCL8; [4]): 56540.0 pg/mL and 58269.2 pg/mL and 53394.4 pg/mL; IL-8/CXCL8 Concentration, Mean (IL-8/CXCL8; [5]): 55575.7 pg/mL; IL-8/CXCL8 Concentration (IL-8/CXCL8; [5]): 57759.9 pg/mL and 58638.2 pg/mL and 50329.0 pg/mL; IL-8/CXCL8 Concentration, Mean (IL-8/CXCL8; [6]): 51601.8 pg/mL; IL-8/CXCL8 Concentration (IL-8/CXCL8; [6]): 51413.7 pg/mL and 49678.2 pg/mL and 53713.6 pg/mL; LPS-induced IL-8 (in words) (IL-8/CXCL8; [7]): significantly reduced; IL-10 Concentration (IL-10; [1]): 651.0 pg/mL and 806.6 pg/mL and 1134.2 pg/mL; IL-10 Concentration (pg/ml), Mean (IL-10; [1]): 863.9 pg/mL; IL-10 Concentration (IL-10; [2]): 436.9 pg/mL and 518.2 pg/mL and 381.9 pg/mL; IL-10 Concentration (pg/ml), Mean (IL-10; [2]): 445.7 pg/mL; IL-10 Concentration (IL-10; [3]): 436.9 pg/mL and 491.3 pg/mL and 624.7 pg/mL; IL-10 Concentration (pg/ml), Mean (IL-10; [3]): 517.6 pg/mL; IL-10 Concentration (IL-10; [4]): 545.0 pg/mL and 637.8 pg/mL and 558.4 pg/mL; IL-10 Concentration (pg/ml), Mean (IL-10; [4]): 580.4 pg/mL; IL-10 Concentration (IL-10; [5]): 571.7 pg/mL and 598.2 pg/mL and 518.2 pg/mL; IL-10 Concentration (pg/ml), Mean (IL-10; [5]): 562.7 pg/mL; IL-10 Concentration (IL-10; [6]): 464.2 pg/mL and 545.0 pg/mL and 436.9 pg/mL; IL-10 Concentration (pg/ml), Mean (IL-10; [6]): 482.0 pg/mL; LPS-induced IL-10 (in words) (IL-10; [7]): significantly reduced; MMP-3 Concentration, Mean (MMP-3; [8]): 7677.2 pg/mL; MMP-3 Concentration (MMP-3; [8]): 7173.5 pg/mL and 7776.9 pg/mL and 8081.3 pg/mL; MMP-3 Concentration, Mean (MMP-3; [9]): 7136.1 pg/mL; MMP-3 Concentration (MMP-3; [9]): 7061.2 pg/mL and 7248.5 pg/mL and 7098.6 pg/mL; MMP-3 Concentration, Mean (MMP-3; [10]): 7173.5 pg/mL; MMP-3 Concentration (MMP-3; [10]): 7098.6 pg/mL and 7248.5 pg/mL and 7173.5 pg/mL; MMP-3 Concentration, Mean (MMP-3; [11]): 7424.0 pg/mL; MMP-3 Concentration (MMP-3; [11]): 7474.3 pg/ml (2×) and 7323.6 pg/ml; MMP-3 Concentration, Mean (MMP-3; [12]): 7337.3 pg/mL; MMP-3 Concentration (MMP-3; [12]): 7701.1 pg/mL and 7398.9 pg/mL and 6911.8 pg/mL; MMP-3 Concentration, Mean (MMP-3; [13]): 7311.7 pg/mL; MMP-3 Concentration (MMP-3; [13]): 7098.6 pg/mL and 7663.2 pg/mL and 7173.5 pg/mL; LPS-induced MMP3 (in words) (MMP-3; [7]): significantly reduced
